What follows are compounds tested against T1, Recombinant human HSD17B13 enzyme (Homo sapiens, UniProt Q7Z5P4) (assay: HSD17b13 NAD(P)H-Glo biochemical assay). Details: 50 uM estradiol, 1 mM NAD+, NAD(P)H-Glo luminescence; read-out: HSD17β13 IC50.
T1 sequence (Q7Z5P4 20-300): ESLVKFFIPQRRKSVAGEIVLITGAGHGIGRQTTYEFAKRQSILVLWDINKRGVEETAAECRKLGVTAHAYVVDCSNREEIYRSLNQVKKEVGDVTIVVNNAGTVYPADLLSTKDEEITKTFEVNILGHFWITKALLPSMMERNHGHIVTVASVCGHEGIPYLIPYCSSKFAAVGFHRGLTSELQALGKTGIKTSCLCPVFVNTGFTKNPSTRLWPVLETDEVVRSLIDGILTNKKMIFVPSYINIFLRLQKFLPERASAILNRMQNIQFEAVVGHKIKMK
Procedure, shortened: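 Luminescent NAD(P)H-Glo read-out, taken after 1 hour at RT, measured cofactor reduction. Substrate and cofactor were estradiol at 50 uM and NAD+ at 1 mM final, reacted with the recombinant human enzyme for 3 hours at 37° C in 20 mM Tris pH7.4, 0.002% Tween-20, 0.02% BSA. Compound was pre-incubated with enzyme for 20 minutes at RT.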

| SMILES | IC50 |
| --- | --- |
| CN1CCN(c2ncc3c(-c4cc(C(F)(F)F)c(F)c(O)c4F)nn(C)c3n2)CC1c1ccccc1 (stereo not shown) [Compound 18.94, 2,6-Difluoro-3-(1-methyl-6-(4-methyl-3-phenylpiperazin-1-y1)-1H-pyrazolo[3,4-d]pyrimidin-3-yl)-5-(trifluoromethyl)phenol] | < 100 nM |
| Cn1nc(-c2cc(C(F)(F)F)c(F)c(O)c2F)c2cnc(N3CCOC4(CCOCC4)C3)nc21 [Compound 18.95, 2,6-Difluoro-3-(1-methyl-6-(1,9-dioxa-4-azaspiro[5.5]undecan-4-y1)-1H-pyrazolo[3,4-d]pyrimidin-3-y1)-5-(trifluoromethyl)phenol] | < 100 nM |
| Cn1nc(-c2cc(C(F)(F)F)c(F)c(O)c2F)c2cnc(N3CCCCC3COc3ccccc3)nc21 (stereo not shown) [Compound 18.98, 2,6-Difluoro-3-(1-methyl-6-(2-(phenoxymethyl)piperidin-1-yl)-1H-pyrazolo[3,4-d]pyrimidin-3-yl)-5-(trifluoromethyl)phenol] | < 100 nM |
| CN1CCN(c2ncc3c(-c4cc(C(F)(F)F)c(F)c(O)c4F)nn(C)c3n2)CC1c1ncc[nH]1 (stereo not shown) [Compound 18.101, 3-(6-(3-(1H-Imidazol-2-yl)-4-methylpiperazin-1-y1)-1-methyl-1H-pyrazolo[3,4-d]pyrimidin-3-yl)-2,6-difluoro-5-(trifluoromethyl)phenol] | 100 to 1000 nM |
| Cn1nc(-c2cc(C(F)(F)F)c(F)c(O)c2F)c2cnc(N3CCOCC3C3CCC3)nc21 (stereo not shown) [Compound 18.104, 3-(6-(3-Cyclobutylmorpholino)-1-methyl-1H-pyrazolo[3,4-d]pyrimidin-3-y1)-2,6-difluoro-5-(trifluoromethyl)phenol] | < 100 nM |
| Cn1nc(-c2cc(C(F)(F)F)c(F)c(O)c2F)c2cnc(N3CCOC4(CCCC4)C3)nc21 [Compound 18.106, 2,6-Difluoro-3-(1-methyl-6-(6-oxa-9-azaspiro[4.5]decan-9-yl)-1H-pyrazolo[3,4-d]pyrimidin-3-y1)-5-(trifluoromethyl)phenol] | < 100 nM |
| Cn1nc(-c2cc(C(F)(F)F)c(F)c(O)c2F)c2cnc(N3CCOCC3CC(F)(F)F)nc21 (stereo not shown) [Compound 18.107, 2,6-Difluoro-3-(1-methyl-6-(3-(2,2,2-trifluoroethyl)morpholino)-1H-pyrazolo[3,4-d]pyrimidin-3-y1)-5-(trifluoromethyl)phenol] | < 100 nM |
| Cn1nc(-c2cc(C(F)(F)F)c(F)c(O)c2F)c2cnc(N3CCN(S(C)(=O)=O)[C@@H](c4ccccc4)C3)nc21 [Compound 18.109, (S)-2,6-Difluoro-3-(1-methyl-6-(4-(methylsulfony1)-3-phenylpiperazin-1-y1)-1H-pyrazolo[3,4-d]pyrimidin-3-y1)-5-(trifluoromethyl)phenol] | < 100 nM |
| Cn1nc(-c2cc(C(F)(F)F)c(F)c(O)c2F)c2cnc(N3CC4CC3CN4S(C)(=O)=O)nc21 (stereo not shown) [Compound 18.110, 2,6-Difluoro-3-(1-methyl-6-(5-(methylsulfony1)-2,5-diazabicyclo[2.2.1]heptan-2-y1)-1H-pyrazolo[3,4-d]pyrimidin-3-yl)-5-(trifluoromethyl)phenol] | < 100 nM |
| Cn1nc(-c2cc(C(F)(F)F)c(F)c(O)c2F)c2cnc(N3CC4CCC(C3)N4S(C)(=O)=O)nc21 [Compound 18.111, 2,6-Difluoro-3-(1-methyl-6-(8-(methylsulfony1)-3,8-diazabicyclo[3.2.1]octan-3-yl)-1H-pyrazolo[3,4-d]pyrimidin-3-y1)-5-(trifluoromethyl)phenol] | < 100 nM |
| Cn1nc(-c2cc(C(F)(F)F)c(F)c(O)c2F)c2cnc(N3CCN(S(C)(=O)=O)C4(COC4)C3)nc21 [Compound 18.112, 2,6-Difluoro-3-(1-methyl-6-(5-(methylsulfonyl)-2-oxa-5,8-diazaspiro[3.5]nonan-8-yl)-1H-pyrazolo[3,4-d]pyrimidin-3-y1)-5-(trifluoromethyl)phenol] | < 100 nM |
| Cn1nc(-c2cc(C(F)(F)F)c(F)c(O)c2F)c2cnc(N3CCOC(C4CCCCC4)C3)nc21 (stereo not shown) [Compound 18.113, 3-(6-(2-Cyclohexylmorpholino)-1-methyl-1H-pyrazolo[3,4-d]pyrimidin-3-yl)-2,6-difluoro-5-(trifluoromethyl)phenol] | < 100 nM |
| Cn1nc(-c2cc(C(F)(F)F)c(F)c(O)c2F)c2cnc(N3CCN(C(=O)c4ccccc4)CC3)nc21 [Compound 18.114, (4-(3-(2,4-Difluoro-3-hydroxy-5-(trifluoromethyl)phenyl)-1-methyl-1H-pyrazolo[3,4-d]pyrimidin-6-y1)piperazin-1-yl)(phenyl)methanone] | < 100 nM |
| Cn1nc(-c2cc(C(F)(F)F)c(F)c(O)c2F)c2cnc(N3CCN(C(=O)C4CCCCC4)CC3)nc21 [Compound 18.115, Cyclohexyl(4-(3-(2,4-difluoro-3-hydroxy-5-(trifluoromethyl)phenyl)-1-methyl-1H-pyrazolo[3,4-d]pyrimidin-6-yl)piperazin-1-yl)methanone] | < 100 nM |
| Cn1nc(-c2cc(C(F)(F)F)c(F)c(O)c2F)c2cnc(N3CCN(C(=O)Nc4ccccc4)CC3)nc21 [Compound 18.116, 4-(3-(2,4-Difluoro-3-hydroxy-5-(trifluoromethyl)phenyl)-1-methyl-1H-pyrazolo[3,4-d]pyrimidin-6-yl)-N-phenylpiperazine-1-carboxamide] | < 100 nM |
| Cn1nc(-c2cc(C(F)(F)F)c(F)c(O)c2F)c2cnc(N(Cc3ccccc3)C3CC3)nc21 [Compound 18.117, 3-(6-(Benzyl(cyclopropyl)amino)-1-methyl-1H-pyrazolo[3,4-d]pyrimidin-3-y1)-2,6-difluoro-5-(trifluoromethyl)phenol] | < 100 nM |
| Cn1nc(-c2cc(C(F)(F)F)c(F)c(O)c2F)c2cnc(N3CCN(S(C)(=O)=O)C(C#N)C3)nc21 (stereo not shown) [Compound 18.118, 4-(3-(2,4-Difluoro-3-hydroxy-5-(trifluoromethyl)phenyl)-1-methyl-1H-pyrazolo[3,4-d]pyrimidin-6-yl)-1-(methylsulfonyl)piperazine-2-carbonitrile] | < 100 nM |
| Cn1nc(-c2cc(C(F)(F)F)c(F)c(O)c2F)c2cnc(N3CCOC(C)(c4ccccc4)C3)nc21 (stereo not shown) [Compound 18.119, 2,6-Difluoro-3-(1-methyl-6-(2-methyl-2-phenylmorpholino)-1H-pyrazolo[3,4-d]pyrimidin-3-y1)-5-(trifluoromethyl)phenol] | < 100 nM |

Further lines, results first:

| IC50 | SMILES |
| --- | --- |
| < 100 nM | Cn1nc(-c2cc(C(F)(F)F)c(F)c(O)c2F)c2cnc(N3CCC4(CCO4)CC3)nc21 [Compound 18.92, 2,6-Difluoro-3-(1-methyl-6-(1-oxa-7-azaspiro[3.5]nonan-7-y1)-1H-pyrazolo[3,4-d]pyrimidin-3-y1)-5-(trifluoromethyl)phenol] |
| < 100 nM | Cn1nc(-c2cc(C(F)(F)F)c(F)c(O)c2F)c2cnc(N3CCC(O)(C4CC4)CC3)nc21 [Compound 18.93, 4-Cyclopropyl-1-(3-(2,4-difluoro-3-hydroxy-5-(trifluoromethyl)phenyl)-1-methyl-1H-pyrazolo[3,4-d]pyrimidin-6-y1)piperidin-4-ol] |
| < 100 nM | Cn1nc(-c2cc(C(F)(F)F)c(F)c(O)c2F)c2cnc(N3CCC(O)(c4ccccn4)CC3)nc21 [Compound 18.96, 1-(3-(2,4-Difluoro-3-hydroxy-5-(trifluoromethyl)phenyl)-1-methyl-1H-pyrazolo[3,4-d]pyrimidin-6-yl)-4-(pyridin-2-y1)piperidin-4-ol] |
| < 100 nM | Cn1nc(-c2cc(C(F)(F)F)c(F)c(O)c2F)c2cnc(N3CCC(O)(c4ccncc4)CC3)nc21 [Compound 18.97, 1-(3-(2,4-Difluoro-3-hydroxy-5-(trifluoromethyl)phenyl)-1-methyl-1H-pyrazolo[3,4-d]pyrimidin-6-yl)-4-(pyridin-4-yl)piperidin-4-ol] |
| < 100 nM | Cn1nc(-c2cc(C(F)(F)F)c(F)c(O)c2F)c2cnc(N3CCC4(CCCO4)CC3)nc21 [Compound 18.99, 2,6-Difluoro-3-(1-methyl-6-(1-oxa-8-azaspiro[4.5]decan-8-yl)-1H-pyrazolo[3,4-d]pyrimidin-3-y1)-5-(trifluoromethyl)phenol] |
| < 100 nM | COC1(CO)CCN(c2ncc3c(-c4cc(C(F)(F)F)c(F)c(O)c4F)nn(C)c3n2)CC1 [Compound 18.100, 2,6-Difluoro-3-(6-(4-(hydroxymethyl)-4-methoxypiperidin-1-y1)-1-methyl-1H-pyrazolo[3,4-d]pyrimidin-3-yl)-5-(trifluoromethyl)phenol] |
| < 100 nM | Cn1nc(-c2cc(C(F)(F)F)c(F)c(O)c2F)c2cnc(N3CCOCC3(C)C)nc21 [Compound 18.102, 3-(6-(3,3-Dimethylmorpholino)-1-methyl-1H-pyrazolo[3,4-d]pyrimidin-3-y1)-2,6-difluoro-5-(trifluoromethyl)phenol] |
| < 100 nM | Cn1nc(-c2cc(C(F)(F)F)c(F)c(O)c2F)c2cnc(N3CCOC(C)(C)C3)nc21 [Compound 18.103, 3-(6-(2,2-Dimethylmorpholino)-1-methyl-1H-pyrazolo[3,4-d]pyrimidin-3-y1)-2,6-difluoro-5-(trifluoromethyl)phenol] |
| < 100 nM | Cn1nc(-c2cc(C(F)(F)F)c(F)c(O)c2F)c2cnc(N3CCOC4(CC4)C3)nc21 [Compound 18.105, 2,6-Difluoro-3-(1-methyl-6-(4-oxa-7-azaspiro[2.5]octan-7-y1)-1H-pyrazolo[3,4-d]pyrimidin-3-y1)-5-(trifluoromethyl)phenol] |
| < 100 nM | Cn1nc(-c2cc(C(F)(F)F)c(F)c(O)c2F)c2cnc(N3CCC(C)(C)CC3)nc21 [Compound 18.108, 3-(6-(4,4-Dimethylpiperidin-1-yl)-1-methyl-1H-pyrazolo[3,4-d]pyrimidin-3-yl)-2,6-difluoro-5-(trifluoromethyl)phenol] |
